{
  "source": "the RepoRT retention time repository (doi:10.1016/j.jhazmat.2019.121712)",
  "data": [
    {"experiment": "Thermo Scientific Acclaim RSLC 120 C18, 100 × 2.1 mm, 2.2 µm, 30 °C; A: 90% water + 10% methanol + 0.01% formic acid + 5 mM ammonium formate; B: methanol + 0.01% formic acid + 5 mM ammonium formate; gradient (min/%B) 0.1/1 3/39 14/99.9 16/99.9", "conditions": "stereoisomer not certain", "units": {"LC retention time": "min"}, "values": [
      {"compound": "C=C1CC23CC1(O)CCC2C12C=CC(O)C(C)(C(=O)O1)C2C3C(=O)O", "note": "(stereo unspecified)", "LC retention time": 4.91},
      {"compound": "O=C1CN=C(c2ccccc2)c2c(sc3c2CCCC3)N1", "LC retention time": 9.49},
      {"compound": "CC(C)C1(NC(=O)C2CC3c4cccc5[nH]cc(c45)CC3N(C)C2)OC2(O)C3CCCN3C(=O)C(Cc3ccccc3)N2C1=O", "note": "(stereo unspecified)", "LC retention time": 8.17},
      {"compound": "CCn1cc(C(=O)O)c(=O)c2cc3c(cc21)OCO3", "LC retention time": 6.03},
      {"compound": "CCCCCCCC(C)(C)c1ccc(C2CCCC(O)C2)c(O)c1", "note": "(stereo unspecified)", "LC retention time": 13.5},
      {"compound": "CCCCCCn1c(=O)c2c(ncn2C)n(C)c1=O", "LC retention time": 9.44},
      {"compound": "CCNc1nc(NCC)[nH]c(=O)n1", "LC retention time": 4.21},
      {"compound": "COc1ccc2[nH]c(C)c(CCN(C)C)c2c1", "LC retention time": 4.19},
      {"compound": "CCCOc1ccc(S(=O)(=O)N2CCN(CCO)CC2)cc1-c1nc2c(CCC)cn(CC)c2c(=O)[nH]1", "LC retention time": 9.49},
      {"compound": "O=C1NC(=O)C(c2ccccc2)(c2ccccc2)N1", "LC retention time": 7.08},
      {"compound": "CNCC(c1ccc(OC)cc1)C1(O)CCCCC1", "note": "(stereo unspecified)", "LC retention time": 6.18},
      {"compound": "c1ccc2c(c1)Cc1cccnc1N1CCNCC21", "note": "(stereo unspecified)", "LC retention time": 5.31},
      {"compound": "CCN(C)C(=O)Oc1cccc(C(C)N(C)C)c1", "note": "(stereo unspecified)", "LC retention time": 4.74},
      {"compound": "CN(C)CCC=C1c2ccccc2C(C)(C)c2ccccc21", "LC retention time": 8.79},
      {"compound": "NC(=O)CS(=O)C(c1ccccc1)c1ccccc1", "note": "(stereo unspecified)", "LC retention time": 6.76},
      {"compound": "Cc1cc(C)nc(NS(=O)(=O)c2ccc(N)cc2)n1", "LC retention time": 4.31},
      {"compound": "COC(=O)Nc1nc2ccc(Sc3ccccc3)cc2[nH]1", "LC retention time": 10.3},
      {"compound": "CC1C(=O)OC2CC[N+]3([O-])CC=C(COC(=O)C(C)(O)C1(C)O)C23", "note": "(stereo unspecified)", "LC retention time": 3.19},
      {"compound": "COc1ccc(C2Sc3ccccc3N(CCN(C)C)C(=O)C2O)cc1", "note": "(stereo unspecified)", "LC retention time": 6.41},
      {"compound": "COc1ccc2c(c1)[nH]c1c(C)nccc12", "LC retention time": 5.34},
      {"compound": "N=c1nc(N2CCCCC2)cc(N)n1O", "LC retention time": 4.88},
      {"compound": "CC(=O)Nc1ccc(-c2ccc(C=NN3CC(=O)NC3=O)o2)cc1", "LC retention time": 5.67},
      {"compound": "CC(CS)C(=O)N1CCCC1C(=O)O", "note": "(stereo unspecified)", "LC retention time": 4.59},
      {"compound": "O=C(O)c1cccc(Oc2ccccc2)c1", "LC retention time": 9.38},
      {"compound": "COC(C)C(O)(C(=O)OCC1=CCN2CCC(O)C12)C(C)C", "note": "(stereo unspecified)", "LC retention time": 4.27},
      {"compound": "COc1cc2c(cc1OC)C13CCN4CC5=CCOC6CC(=O)N2C1C6C5CC43", "note": "(stereo unspecified)", "LC retention time": 4.21},
      {"compound": "CCCNC(C)C(=O)Nc1ccccc1C", "note": "(stereo unspecified)", "LC retention time": 4.69},
      {"compound": "COc1ccc(C(CN(C)C)C2(O)CCCCC2)cc1", "note": "(stereo unspecified)", "LC retention time": 6.14},
      {"compound": "C=C1CC2C(CCC3(C)C(=O)CCC23)C2(C)C=CC(=O)C=C12", "note": "(stereo unspecified)", "LC retention time": 9.03},
      {"compound": "CCCCCn1cc(C(=O)c2cccc3ccccc23)c2cc(O)ccc21", "LC retention time": 11.3},
      {"compound": "CC(=O)Oc1ccc(C(c2ccc(OC(C)=O)cc2)c2ccccn2)cc1", "LC retention time": 8.92},
      {"compound": "CCC(c1cccc(O)c1)C(C)CNC", "note": "(stereo unspecified)", "LC retention time": 5.14},
      {"compound": "O=S(=O)(O)c1ccc2ccccc2c1", "LC retention time": 5.44},
      {"compound": "CNC(=O)ON=CC(C)(C)S(C)=O", "note": "(stereo unspecified)", "LC retention time": 3.5},
      {"compound": "CCCCCn1cc(C(=O)N2CCN(C)CC2)c2ccccc21", "LC retention time": 7.75},
      {"compound": "O=C1NCC(=O)N2C1Cc1c([nH]c3ccccc13)C2c1ccc2c(c1)OCO2", "note": "(stereo unspecified)", "LC retention time": 7.99},
      {"compound": "CC(C)(C)NCC(O)COc1cccc2c1CC(O)C(O)C2", "note": "(stereo unspecified)", "LC retention time": 4.29},
      {"compound": "Cc1ccc(S(=O)(=O)NC(=O)NN2CCCCCC2)cc1", "LC retention time": 8.09},
      {"compound": "CCCOP(=O)(OCCC)Oc1ccc(SC)cc1", "LC retention time": 10.8},
      {"compound": "CCOP(=S)(OCC)N1C(=O)c2ccccc2C1=O", "LC retention time": 10.2},
      {"compound": "CCOP(=S)(OCC)Oc1cnccn1", "LC retention time": 8.35},
      {"compound": "CNCC(O)c1ccc(O)c(O)c1", "note": "(stereo unspecified)", "LC retention time": 1.38},
      {"compound": "CNCCCC(C#N)(c1ccc(OC)c(OC)c1)C(C)C", "note": "(stereo unspecified)", "LC retention time": 6.14},
      {"compound": "CN(C)C(CSS(=O)(=O)c1ccccc1)CSS(=O)(=O)c1ccccc1", "LC retention time": 9.6},
      {"compound": "CC(C(=O)c1ccccc1)N1CCCC1", "note": "(stereo unspecified)", "LC retention time": 4.01},
      {"compound": "Cc1nc(NS(=O)(=O)c2ccc(N)cc2)oc1C", "LC retention time": 4.11}
    ]}
  ]
}
